Source: the CheMixHub viscosity set
± gives the uncertainty stated by the source.

Assay: xn = mol fraction of the nth substance listed

Compound: c1ccccc1 + Cc1ccccc1
- viscosity (303.15 K, 101.33 kPa, x1 = 0.4383): 0.523 ± 0.0048 mPa·s
- viscosity (303.15 K, 101.33 kPa, x1 = 0.5149): 0.526 ± 0.0049 mPa·s
- viscosity (303.15 K, 101.33 kPa, x1 = 0.6583): 0.529 ± 0.0049 mPa·s
- viscosity (303.15 K, 101.33 kPa, x1 = 0.7819): 0.54 ± 0.005 mPa·s
- viscosity (303.15 K, 101.33 kPa, x2 = 0.1): 0.587 ± 0.016 mPa·s
- viscosity (303.15 K, 101.33 kPa, x2 = 0.2): 0.576 ± 0.016 mPa·s
- viscosity (303.15 K, 101.33 kPa, x2 = 0.402): 0.563 ± 0.016 mPa·s
- viscosity (303.15 K, 101.33 kPa, x2 = 0.6): 0.551 ± 0.016 mPa·s
- viscosity (303.15 K, 101.33 kPa, x2 = 0.8): 0.539 ± 0.015 mPa·s
- viscosity (303.15 K, 101.33 kPa, x2 = 0.899): 0.53 ± 0.015 mPa·s
- viscosity (305.15 K, 101.33 kPa, x2 = 0.83): 0.5517 ± 0.0064 mPa·s
- viscosity (305.35 K, 101.33 kPa, x2 = 0.508): 0.5535 ± 0.0064 mPa·s
- viscosity (305.35 K, 101.33 kPa, x2 = 0.719): 0.554 ± 0.0064 mPa·s
- viscosity (305.55 K, 101.33 kPa, x2 = 0.107): 0.5782 ± 0.0067 mPa·s
- viscosity (305.55 K, 101.33 kPa, x2 = 0.62): 0.5525 ± 0.0064 mPa·s
- viscosity (305.65 K, 101.33 kPa, x2 = 0.202): 0.57 ± 0.0066 mPa·s
- viscosity (305.75 K, 101.33 kPa, x2 = 0.386): 0.5579 ± 0.0065 mPa·s
- viscosity (308.15 K, 101 kPa, x1 = 0.54): 0.502 ± 0.013 mPa·s
- viscosity (308.15 K, 101 kPa, x1 = 0.78): 0.506 ± 0.014 mPa·s
- viscosity (308.15 K, 101.33 kPa, x2 = 0.1): 0.564 ± 0.016 mPa·s
- viscosity (308.15 K, 101.33 kPa, x2 = 0.2): 0.556 ± 0.016 mPa·s
- viscosity (308.15 K, 101.33 kPa, x2 = 0.402): 0.541 ± 0.015 mPa·s
- viscosity (308.15 K, 101.33 kPa, x2 = 0.6): 0.532 ± 0.015 mPa·s
- viscosity (308.15 K, 101.33 kPa, x2 = 0.8): 0.518 ± 0.015 mPa·s
- viscosity (308.15 K, 101.33 kPa, x2 = 0.899): 0.507 ± 0.015 mPa·s
- viscosity (312.85 K, 101.33 kPa, x2 = 0.107): 0.5215 ± 0.006 mPa·s
- viscosity (312.95 K, 101.33 kPa, x2 = 0.202): 0.5201 ± 0.006 mPa·s
- viscosity (312.95 K, 101.33 kPa, x2 = 0.272): 0.5187 ± 0.006 mPa·s
- viscosity (313.05 K, 101.33 kPa, x2 = 0.719): 0.5077 ± 0.0059 mPa·s
- viscosity (313.15 K, 101 kPa, x1 = 0.28): 0.472 ± 0.013 mPa·s
- viscosity (313.15 K, 101 kPa, x1 = 0.54): 0.476 ± 0.013 mPa·s
- viscosity (313.15 K, 101 kPa, x1 = 0.78): 0.48 ± 0.013 mPa·s
- viscosity (313.15 K, 101.33 kPa, x1 = 0.1688): 0.456 ± 0.0043 mPa·s
- viscosity (313.15 K, 101.33 kPa, x1 = 0.4383): 0.463 ± 0.0044 mPa·s
- viscosity (313.15 K, 101.33 kPa, x1 = 0.6583): 0.471 ± 0.0044 mPa·s
- viscosity (313.15 K, 101.33 kPa, x1 = 0.7819): 0.479 ± 0.0045 mPa·s
- viscosity (313.15 K, 101.33 kPa, x2 = 0.1): 0.55 ± 0.016 mPa·s
- viscosity (313.15 K, 101.33 kPa, x2 = 0.2): 0.529 ± 0.015 mPa·s
- viscosity (313.15 K, 101.33 kPa, x2 = 0.402): 0.517 ± 0.015 mPa·s
- viscosity (313.15 K, 101.33 kPa, x2 = 0.6): 0.505 ± 0.015 mPa·s
- viscosity (313.15 K, 101.33 kPa, x2 = 0.8): 0.491 ± 0.014 mPa·s
- viscosity (313.15 K, 101.33 kPa, x2 = 0.899): 0.483 ± 0.014 mPa·s
- viscosity (313.25 K, 101.33 kPa, x2 = 0.386): 0.51 ± 0.0059 mPa·s
- viscosity (313.35 K, 101.33 kPa, x2 = 0.508): 0.5064 ± 0.0058 mPa·s
- viscosity (313.45 K, 101.33 kPa, x2 = 0.62): 0.5057 ± 0.0058 mPa·s
- viscosity (313.45 K, 101.33 kPa, x2 = 0.83): 0.5068 ± 0.0058 mPa·s
- viscosity (318.15 K, 101.33 kPa, x2 = 0.1): 0.531 ± 0.015 mPa·s
- viscosity (318.15 K, 101.33 kPa, x2 = 0.2): 0.517 ± 0.015 mPa·s
- viscosity (318.15 K, 101.33 kPa, x2 = 0.402): 0.5 ± 0.014 mPa·s
- viscosity (318.15 K, 101.33 kPa, x2 = 0.6): 0.484 ± 0.014 mPa·s
- viscosity (318.15 K, 101.33 kPa, x2 = 0.8): 0.471 ± 0.014 mPa·s
- viscosity (318.15 K, 101.33 kPa, x2 = 0.899): 0.464 ± 0.014 mPa·s
- viscosity (322.55 K, 101.33 kPa, x2 = 0.719): 0.464 ± 0.0054 mPa·s
- viscosity (322.85 K, 101.33 kPa, x2 = 0.83): 0.4607 ± 0.0053 mPa·s
- viscosity (322.95 K, 101.33 kPa, x2 = 0.202): 0.4648 ± 0.0054 mPa·s
- viscosity (323.05 K, 101.33 kPa, x2 = 0.62): 0.4581 ± 0.0053 mPa·s
- viscosity (323.15 K, 100 kPa, x2 = 0.25): 0.431 ± 0.013 mPa·s
- viscosity (323.15 K, 100 kPa, x2 = 0.5): 0.427 ± 0.013 mPa·s
- viscosity (323.15 K, 100 kPa, x2 = 0.75): 0.424 ± 0.013 mPa·s
- viscosity (323.15 K, 101.33 kPa, x1 = 0.1688): 0.411 ± 0.004 mPa·s
- viscosity (323.15 K, 101.33 kPa, x1 = 0.4383): 0.416 ± 0.004 mPa·s
- viscosity (323.15 K, 101.33 kPa, x1 = 0.5149): 0.42 ± 0.004 mPa·s
- viscosity (323.15 K, 101.33 kPa, x1 = 0.6583): 0.423 ± 0.0041 mPa·s
- viscosity (323.15 K, 101.33 kPa, x1 = 0.7819): 0.424 ± 0.0041 mPa·s
